Assay results from ChEMBL document CHEMBL5647692, “The novel dual PI3K/mTOR inhibitor NVP-BGT226 displays cytotoxic activity in both normoxic and hypoxic hepatocarcinoma cells” (Oncotarget, 2015).
Activity calls are given as the source filed them.

What was measured:
[1] = Inhibition of PI3K/Akt/mTOR signaling pathway in human SNU-475 cells assessed as reduction in phosphorylation of Akt at 0.001 to 0.01 uM incubated for 1 hr under hypoxia condition by Western blotting analysis; assay type: cell-based; conditions: dose 0.001-0.01 µM
[2] = Inhibition of PI3K/Akt/mTOR signaling pathway in human HepG2 cells assessed as reduction in phosphorylation of mTORC1/2 incubated for 1 hr under normoxia condition by Western blotting analysis; assay type: cell-based; conditions: dose 0.25-1 µM
[3] = Inhibition of PI3K/Akt/mTOR signaling pathway in human SNU-475 cells assessed as reduction in S6 phosphorylation at 1 to 10 nM incubated for 1 hr under hypoxia condition by Western blotting analysis; assay type: cell-based; conditions: dose 1-10 nM
[4] = system: Mahlavu; experiment: Induction of autophagy in human Mahlavu cells assessed as increase in lipidation of LC3I to LC3II at 0.5 uM incubated for 24 hrs by Western blot analysis; assay type: functional, cell-based
[5] = Inhibition of PI3K/Akt/mTOR signaling pathway in human Mahlavu cells assessed as reduction in phosphorylation of Akt at 1 to 10 nM incubated for 1 hr under normoxia condition by Western blotting analysis; assay type: cell-based; conditions: dose 1-10 nM
[6] = Inhibition of PI3K/Akt/mTOR signaling pathway in human SNU-449 cells assessed as reduction in phosphorylation of GSK3 alpha/beta incubated for 1 hr under normoxia condition by Western blotting analysis; assay type: cell-based; conditions: dose 0.25-1 µM
[7] = system: Mahlavu; experiment: Induction of cell cycle arrest in human Mahlavu cells assessed as decrease in accumulation of cells in S phase incubated at 0.01 to 0.1 uM for 24 hrs by propidium iodide staining based muse cell analysis; assay type: functional; conditions: dose 0.01-0.1 µM
[8] = Inhibition of PI3K/Akt/mTOR signaling pathway in human SNU-449 cells assessed as reduction in phosphorylation of mTORC1/2 incubated for 1 hr under normoxia condition by Western blotting analysis; assay type: cell-based; conditions: dose 0.25-1 µM
[9] = system: Mahlavu; experiment: Induction of autophagy in human Mahlavu cells assessed as increase in lipidation of LC3A/B II level at 0.5 uM incubated for 24 hrs in presence of chloroquine by Western blot analysis; assay type: functional, cell-based
[10] = system: SNU-449; experiment: Cytotoxicity against human SNU-449 cells assessed as reduction in cell viability incubated for 24 hrs under normoxia condition by MTT assay; assay type: functional, cell-based

COc1ccc(-c2ccc3ncc4c(c3c2)n(-c2ccc(N3CCNCC3)c(C(F)(F)F)c2)c(=O)n4C)cn1 [BGT-226 FREE BASE]
active: inhibition [1] | inhibition [2] Dose-Dependent Effect | inhibition [3] | Activity [4] | inhibition [5] | inhibition [6] Dose-Dependent Effect | Activity [7] | inhibition [8] Dose-Dependent Effect | Activity [9] | Activity [10]
